Values after ≈ are worked out from the molar mass of the structure shown. Numbered stars: 1 amine (or outer) side, 2 acyl side, 3 side chain; on linkers, the order of the positions; unused ones are H or OH. Bridge positions count the residues as written; N and C are the ends. Square brackets hold non-standard residues; d marks the D form. Peptide text beside a SMILES is read from it. * marks the point of attachment. hTyr(3S-OH,4S-OH,3'-OSO3H) = N[C@H](C(=O)O)[C@H](O)[C@@H](O)c1ccc(O)c(OS(=O)(=O)O)c1; pTerphenylCO(4''-OnC5H11) = CCCCCOc1ccc(-c2ccc(-c3ccc(C(=O)*)cc3)cc2)cc1; Orn(4R-OH,5R-OH) = O=C([C@H](C[C@@H](O)[C@@H](O)N[*:3])N[*:1])[*:2]; hTyr(3S-OH,4S-OH) = N[C@H](C(=O)O)[C@H](O)[C@@H](O)c1ccc(O)cc1; Pro(3S-OH,4S-Me) = C[C@H]1CN[C@H](C(=O)O)[C@H]1O; X1 = CCCCCOc1ccc(-c2cc(-c3ccc(C(=O)*)cc3)no2)cc1; Gln(3R-OH) = NC(=O)C[C@@H](O)[C@H](N)C(=O)O; Hyp = O=C(O)[C@@H]1C[C@@H](O)CN1

Holding throughout (format): functional
For assay [1], the system named is Candida tropicalis. As to the kind of experiment: Antifungal activity against Candida tropicalis after 48 hrs.
Assay [2] relates to Pichia kudriavzevii. The assay can be described thus: Antifungal activity against Candida krusei after 48 hrs.
Assay [3] relates to Candida albicans. The assay can be described thus: Antifungal activity against Candida albicans after 48 hrs.
Assay [4] concerns Nakaseomyces glabratus. As to the kind of experiment: Antifungal activity against Candida glabrata after 48 hrs.
Assay [5] relates to Pichia kudriavzevii. As to the kind of experiment: Paradoxical effect in Candida krusei assessed as increase in turbidity at 96 times MIC.
Assay [6] concerns Candida parapsilosis. The assay can be described thus: Antifungal activity against Candida parapsilosis after 48 hrs. The settings on record: Lodderomyces parapsilosis.
In assay [7] the test system is Nakaseomyces glabratus. As to the kind of experiment: Paradoxical effect in Candida glabrata assessed as increase in turbidity at 96 times MIC.
Assay [8] has as its system Candida parapsilosis. As to the kind of experiment: Paradoxical effect in Candida parapsilosis assessed as increase in turbidity at 96 times MIC.
The subject of assay [9] is Candida albicans. The assay can be described thus: Paradoxical effect in Candida albicans assessed as increase in turbidity at 96 times MIC.
For assay [10], the system named is Candida tropicalis. The assay can be described thus: Paradoxical effect in Candida tropicalis assessed as increase in turbidity at 96 times MIC.
The subject of assay [11] is Candida parapsilosis. The assay can be described thus: Paradoxical effect in Candida parapsilosis assessed as increase in turbidity at 64 times MIC.
Assay [12] deals with Pichia kudriavzevii. As to the kind of experiment: Paradoxical effect in Candida krusei assessed as increase in turbidity at 64 times MIC.
For assay [13], the system named is Nakaseomyces glabratus. The assay can be described thus: Paradoxical effect in Candida glabrata assessed as increase in turbidity at 64 times MIC.
Assay [14] concerns Candida tropicalis. As to the kind of experiment: Paradoxical effect in Candida tropicalis assessed as increase in turbidity at 64 times MIC.
The subject of assay [15] is Candida albicans. As to the kind of experiment: Paradoxical effect in Candida albicans assessed as increase in turbidity at 64 times MIC.
The test system of assay [16] is Nakaseomyces glabratus. The assay can be described thus: Paradoxical effect in Candida glabrata assessed as increase in turbidity at 16 times MIC.
Assay [17] concerns Candida tropicalis. As to the kind of experiment: Paradoxical effect in Candida tropicalis assessed as increase in turbidity at 16 times MIC.
For assay [18], the system named is Candida parapsilosis. The assay can be described thus: Paradoxical effect in Candida parapsilosis assessed as increase in turbidity at 16 times MIC.
Assay [19] concerns Pichia kudriavzevii. As to the kind of experiment: Paradoxical effect in Candida krusei assessed as increase in turbidity at 16 times MIC.
Assay [20] has as its system Candida albicans. The assay can be described thus: Paradoxical effect in Candida albicans assessed as increase in turbidity at 16 times MIC.

The term MIC50 denotes the lowest concentration that inhibits either 50% of growth or 50% of the strains tested, depending on the study. Low values mean greater potency, high ones weaker potency. Usually MIC90 stands for the lowest concentration that inhibits either 90% of growth or 90% of the strains tested, depending on the study. Low values mean greater potency, high ones weaker potency. Turning to `CCCCCOc1ccc(-c2cc(-c3ccc(C(=O)N[C@H]4C[C@@H](O)[C@@H](O)NC(=O)[C@@H]5[C@@H](O)[C@@H](C)CN5C(=O)[C@H]([C@H](O)CC(N)=O)NC(=O)[C@H]([C@H](O)[C@@H](O)c5ccc(O)c(OS(=O)(=O)O)c5)NC(=O)[C@@H]5C[C@@H](O)CN5C(=O)[C@H]([C@@H](C)O)NC4=O)cc3)no2)cc1` [MICAFUNGIN] (X1-[Orn(4R-OH,5R-OH)]T[Hyp][hTyr(3S-OH,4S-OH,3'-OSO3H)][Gln(3R-OH)][Pro(3S-OH,4S-Me)]; lactam 1-C), the MIC50 in the assay with Candida tropicalis [1] came to 0.06 µg/mL (≈ 0.0472 µM); against Pichia kudriavzevii [2], 0.5 µg/mL (≈ 0.394 µM); against Candida albicans [3] it was 0.25 µg/mL (≈ 0.197 µM); against Nakaseomyces glabratus [4], 0.06 µg/mL (≈ 0.0472 µM); in the assay with Candida parapsilosis [6], 1 µg/mL (≈ 0.787 µM). Moreover, the MIC90 against Candida tropicalis [1] amounted to 0.06 µg/mL (≈ 0.0472 µM); in the assay on Pichia kudriavzevii [2], 0.5 µg/mL (≈ 0.394 µM); in the assay on Candida albicans [3] it was 0.25 µg/mL (≈ 0.197 µM); against Nakaseomyces glabratus [4], 0.125 µg/mL (≈ 0.0984 µM); against Candida parapsilosis [6], 2 µg/mL (≈ 1.57 µM). The Activity in the assay with Pichia kudriavzevii [5] is reported as 60%; with Nakaseomyces glabratus [7], 0%; with Candida parapsilosis [8], 0%; in the assay with Candida albicans [9], 0%; in the assay on Candida tropicalis [10], 70%.

With `CC[C@H](C)C[C@H](C)CCCCCCCCC(=O)N[C@H]1C[C@@H](O)[C@@H](NCCN)NC(=O)[C@@H]2[C@@H](O)CCN2C(=O)[C@H]([C@H](O)CCN)NC(=O)[C@H]([C@H](O)[C@@H](O)c2ccc(O)cc2)NC(=O)[C@@H]2C[C@@H](O)CN2C(=O)[C@H]([C@@H](C)O)NC1=O` [CASPOFUNGIN], the MIC50 against Candida tropicalis [1] was found to be 1 µg/mL (≈ 0.915 µM); against Pichia kudriavzevii [2], 0.06 µg/mL (≈ 0.0549 µM); with Candida albicans [3], 0.125 µg/mL (≈ 0.114 µM); in the assay on Nakaseomyces glabratus [4] it was 0.25 µg/mL (≈ 0.229 µM); with Candida parapsilosis [6], 0.5 µg/mL (≈ 0.457 µM). The MIC90 worked out at 1 µg/mL (≈ 0.915 µM) against Candida tropicalis [1]; 1 µg/mL (≈ 0.915 µM) against Pichia kudriavzevii [2]; 0.25 µg/mL (≈ 0.229 µM) in the assay on Candida albicans [3]; 0.5 µg/mL (≈ 0.457 µM) against Nakaseomyces glabratus [4]; 1 µg/mL (≈ 0.915 µM) in the assay on Candida parapsilosis [6]. The Activity is recorded as 90% in the assay on Candida parapsilosis [11]; 10% in the assay with Pichia kudriavzevii [12]; 0% with Nakaseomyces glabratus [13]; 40% with Candida tropicalis [14]; 60% in the assay with Candida albicans [15].

In the case of `CCCCCOc1ccc(-c2ccc(-c3ccc(C(=O)N[C@H]4C[C@@H](O)[C@@H](O)NC(=O)[C@@H]5[C@@H](O)[C@@H](C)CN5C(=O)[C@H]([C@@H](C)O)NC(=O)[C@H]([C@H](O)[C@@H](O)c5ccc(O)cc5)NC(=O)[C@@H]5C[C@@H](O)CN5C(=O)[C@H]([C@@H](C)O)NC4=O)cc3)cc2)cc1` [ANIDULAFUNGIN] ({pTerphenylCO(4''-OnC5H11)}-[Orn(4R-OH,5R-OH)]T[Hyp][hTyr(3S-OH,4S-OH)]T[Pro(3S-OH,4S-Me)]; lactam 1-C), the MIC50 against Candida tropicalis [1] stood at 0.5 µg/mL (≈ 0.438 µM); against Pichia kudriavzevii [2] it was 0.25 µg/mL (≈ 0.219 µM); against Candida albicans [3] it was 0.5 µg/mL (≈ 0.438 µM); in the assay with Nakaseomyces glabratus [4], 0.5 µg/mL (≈ 0.438 µM); in the assay with Candida parapsilosis [6] it was 0.5 µg/mL (≈ 0.438 µM). In addition, the MIC90 turned out to be 1 µg/mL (≈ 0.877 µM) in the assay with Candida tropicalis [1]; 0.25 µg/mL (≈ 0.219 µM) in the assay with Pichia kudriavzevii [2]; 1 µg/mL (≈ 0.877 µM) against Candida albicans [3]; 0.5 µg/mL (≈ 0.438 µM) in the assay with Nakaseomyces glabratus [4]; 0.5 µg/mL (≈ 0.438 µM) with Candida parapsilosis [6]. Moreover, the Activity in the assay on Nakaseomyces glabratus [16] stood at 0%; in the assay with Candida tropicalis [17], 20%; with Candida parapsilosis [18] it was 0%; with Pichia kudriavzevii [19], 0%; in the assay with Candida albicans [20] it was 40%.

For the origin of these results see ChEMBL document CHEMBL1145503, “Paradoxical effect of Echinocandins across Candida species in vitro: evidence for echinocandin-specific and candida species-related differences” (2007).
